Laboratory results: patent publication US6737383B1, “Herbicidal oxadiazolidines” (priority 1999, dated 2004)

What was measured:
[1] = test system: black nightshade; experiment: Test E black nightshade; type: in vivo, Solanum nigra; conditions: Postemergence
Description: (§1) Compounds evaluated in this test were formulated in a non-phytotoxic solvent mixture which included a surfactant and applied to plants that were in the 1- to 4-leaf stage (postemergence application). A mixture of sandy loam soil and greenhouse potting mix in a 60:40 ratio was used for the postemergence test.
(§2) Plantings of these crops and weed species were adjusted to produce plants of appropriate size for the postemergence test. All plant species were grown using normal greenhouse practices. Crop and weed species include annual bluegrass (Poa annua), blackgrass (Alopecurus myosuroides), black nightshade (Solanum nigra), chickweed (Stellaria media), common poppy (Papaver rhoeas), deadnettle (Lamium amplexicaule), downy brome (Bromus tectorum), field violet (Viola arvensis), galium (Galium aparine), green foxtail (Setaria viridis), Italian ryegrass (Lolium multiflorum), jointed goatgrass (Aegilops cylindrica), kochia (Kochia scoparia), lambsquarters (Chenopodium album), littleseed canarygrass (Phalaris minor), rape (Brassica napus), redroot pigweed (Amaranthus retroflexus), Russian thistle (Salsola kali), scentless chamomile (Matricaria inodora), spring barley (Hordeum vulgare), sugar beet (Beta vulgaris), sunflower (Helianthus annuus), ivyleaf speedwell (Veronica hederaefolia), spring wheat (Triticum aestivum), winter wheat (Triticum aestivum), wild buckwheat (Polygonum convolvulus), wild mustard (Sinapis arvensis), wild oat (Avena fatua), windgrass (Apera spica-venti) and winter barley (Hordeum vulgare).
(§3) Treated plants and untreated controls were maintained in a greenhouse for approximately 21 to 28 days, after which all treated plants were compared to untreated controls and visually evaluated. […] A dash response (-) means no test result.

[2] = test system: common ragweed; experiment: Test C postemergence common ragweed; type: in vivo, Ambrosia elatior; conditions: 0 to 100 scale, 0 no effect, 100 complete control
Outline: (§4)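 Postemergence spray; formulation = non-phytotoxic solvent + surfactant; soil 60:40 sandy loam:greenhouse potting mix; greenhouse, ~14–21 d; visual rating vs untreated, 0–100 (100 = complete control).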

[3] = test system: field violet; experiment: Test E field violet; type: in vivo, Viola arvensis; conditions: Postemergence
Description: as §1, §2, §3

[4] = test system: field violet; experiment: Test E field violet; type: in vivo, Viola arvensis; conditions: Preemergence
[5] = test system: galium; experiment: Test E galium; type: in vivo, Galium aparine; conditions: Preemergence
[6] = test system: cocklebur; experiment: Test C postemergence cocklebur; type: in vivo, Xanthium strumarium; conditions: 0 to 100 scale, 0 no effect, 100 complete control
Description: (§5) Compounds evaluated in this test were formulated in a non-phytotoxic solvent mixture which included a surfactant and applied to plants that were grown for various periods of time before treatment (postemergence application). A mixture of sandy loam soil and greenhouse potting mix in a 60:40 ratio was used for the postemergence test.
(§6) Plantings of these crops and weed species were adjusted to produce plants of appropriate size for the postemergence test. All plant species were grown using normal greenhouse practices. Crop and weed species include arrowleaf sida (Sida rhombifolia), barnyardgrass (Echinochloa crus-galli), cocklebur (Xanthium strumarium), common ragweed (Ambrosia elatior), corn (Zea mays), cotton (Gossypium hirsutum), eastern black nightshade (Solanum ptycanthum), fall panicum (Panicum dichotomiflorum), field bindweed (Convolvulus arvensis), giant foxtail (Setaria faberii), hairy beggarticks (Bidens pilosa), ivyleaf morningglory (Ipomoea hederacea), johnsongrass (Sorghum halepense), ladysthumb smartweed (Polygonum persicaria), lambsquarters (Chenopodium album), large crabgrass (Digitaria sanguinalis), purple nutsedge (Cyperus rotundus), redroot pigweed (Amaranthus retroflexus), soybean (Glycine max), surinam grass (Brachiaria decumbens), velvetleaf (Abutilon theophrasti) and wild poinsettia (Euphorbia heterophylla).
(§7) Treated plants and untreated controls were maintained in a greenhouse for approximately 14, to 21 days, after which all treated plants were compared to untreated controls and visually evaluated. Plant response ratings, summarized in Table C, were based upon a 0 to 100 scale where 0 was no effect and 100 was complete control. A dash response (−) means no test result.

[7] = test system: common poppy; experiment: Test E common poppy; type: in vivo, Papaver rhoeas; conditions: Postemergence; for Plant response rating, Comnion poppy: Rate 125 g/ha
Description: as §1, §2, §3

[8] = test system: sunflower; experiment: Test E sunflower; type: in vivo, Helianthus annuus; conditions: Preemergence
[9] = test system: black nightshade; experiment: Test E black nightshade; type: in vivo, Solanum nigra; conditions: Preemergence
[10] = test system: wild poinsettia; experiment: Test C postemergence wild poinsettia; type: in vivo, Euphorbia heterophylla; conditions: 0 to 100 scale, 0 no effect, 100 complete control
Outline: as §4

[11] = test system: scentless chamomile; experiment: Test E scentless chamomile; type: in vivo, Matricaria inodora; conditions: Postemergence
Description: as §1, §2, §3

[12] = test system: green foxtail; experiment: Test E green foxtail; type: in vivo, Setaria viridis; conditions: Postemergence
Outline: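 Plants were grown under normal greenhouse practice; for postemergence, in sandy loam soil mixed 60:40 with potting mix, treated at the 1- to 4-leaf stage. The compound was in a non-phytotoxic solvent carrying a surfactant. After roughly 21 to 28 days plants were scored visually against untreated plants.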

[13] = test system: wild mustard; experiment: Test E wild mustard; type: in vivo, Sinapis arvensis; conditions: Preemergence
[14] = test system: sugar beet; experiment: Test E sugar beet; type: in vivo, Beta vulgaris; conditions: Postemergence
Description: as §1, §2, §3

[15] = test system: field bindweed; experiment: Test C postemergence field bindweed; type: in vivo, Convolvulus arvensis; conditions: 0 to 100 scale, 0 no effect, 100 complete control
Description: as §5, §6, §7

[16] = test system: crabgrass; experiment: Test A crabgrass; type: in vivo, Digitaria spp.; conditions: 0 to 10 scale where 0 is no effect and 10 is complete control
Outline: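 Ratings came from visual comparison with untreated plants about eleven days after treatment, scored 0 for no effect through 10 for complete control. Both soil-drench preemergence and runoff-spray postemergence applications were made at the same time.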

[17] = Rate 250 g/ha, 0 to 100 scale (0 no effect, 100 complete control)
[18] = Rate 62 g/ha, 0 to 100 scale, 0 no effect, 100 complete control
[19] = Rate 125 g/ha, 0 to 100 scale (0 no effect, 100 complete control)
[20] = Rate 500 g/ha, 0 to 100 scale, 0 no effect, 100 complete control
[21] = Rate 500 g/ha, 0 to 100 scale where 0 is no effect and 100 is complete control

CCn1c(=O)on(C(=O)N(c2ccc(F)cc2)C(C)C)c1=O [Compound 107]
Plant response rating, Blk nightshade ([1]; Rate 62 g/ha, 0 to 100 scale): 10
Plant response rating, Blk nightshade ([1]; Rate 125 g/ha, 0 to 100 scale): 30
Plant response rating, Blk nightshade [1, 17]: 60
Plant response rating Common ragweed ([2]; Rate 140 g/ha): 0
Plant response rating Common ragweed ([2]; Rate 280 g/ha): 50
Plant response rating Common ragweed ([2]; Rate 560 g/ha): 50
Plant response rating Common ragweed ([2]; Rate 1120 g/ha): 50
Plant response rating, Field violet ([3]; Rate 62 g/ha, 0 to 100 scale): 0
Plant response rating, Field violet ([3]; Rate 125 g/ha, 0 to 100 scale): 25
Plant response rating, Field violet [3, 17]: 0
Plant response rating, Field violet [4, 18]: 70
Plant response rating, Field violet [4, 19]: 30
Plant response rating, Field violet ([4]; Rate 250 g/ha, 0 to 100 scale): 20
Plant response rating, Galium [5, 18]: 50
Plant response rating, Galium [5, 19]: 70
Plant response rating, Galium ([5]; Rate 250 g/ha, 0 to 100 scale): 100
Plant response rating, Cocklebur ([6]; Rate 140 g/ha): 0
Plant response rating, Cocklebur ([6]; Rate 280 g/ha): 50
Plant response rating, Common poppy ([7]; Rate 62 g/ha, 0 to 100 scale): 0
Plant response rating, Comnion poppy ([7]; 0 to 100 scale): 0
Plant response rating, Common poppy [7, 17]: 5
Plant response rating, Sunflower [8, 18]: 20
Plant response rating, Sunflower [8, 19]: 30
Plant response rating, Sunflower ([8]; Rate 250 g/ha, 0 to 100 scale): 40
Plant response rating, Blk nightshade [9, 18]: 70
Plant response rating, Blk nightshade [9, 19]: 95
Plant response rating, Blk nightshade ([9]; Rate 250 g/ha, 0 to 100 scale): 95
Plant response rating Wild poinsettia ([10]; Rate 140 g/ha): 0
Plant response rating Wild poinsettia ([10]; Rate 280 g/ha): 15
Plant response rating Wild poinsettia ([10]; Rate 560 g/ha): 40
Plant response rating Wild poinsettia ([10]; Rate 1120 g/ha): 80
Plant response rating, Scentless chamo ([11]; Rate 62 g/ha, 0 to 100 scale): 10
Plant response rating, Scentless chamo ([11]; Rate 125 g/ha, 0 to 100 scale): 0
Plant response rating, Scentless chamo [11, 17]: 10
Plant response rating, Green foxtail ([12]; Rate 62 g/ha, 0 to 100 scale): 20
Plant response rating, Green foxtail ([12]; Rate 125 g/ha, 0 to 100 scale): 30
Plant response rating, Green foxtail [12, 17]: 85
Plant response rating, Wild mustard [13, 18]: 100
Plant response rating, Wild mustard [13, 19]: 85
Plant response rating, Wild mustard ([13]; Rate 250 g/ha, 0 to 100 scale): 100
Plant response rating, Sugar beet ([14]; Rate 62 g/ha, 0 to 100 scale): 10
Plant response rating, Sugar beet ([14]; Rate 125 g/ha, 0 to 100 scale): 10
Plant response rating, Sugar beet [14, 17]: 40
Plant response rating Field bindweed ([15]; Rate 140 g/ha): 0
Plant response rating Field bindweed ([15]; Rate 280 g/ha): 0
Plant response rating Field bindweed ([15]; Rate 560 g/ha): 30
Plant response rating Field bindweed ([15]; Rate 1120 g/ha): 60

CCn1c(=O)on(C(=O)N(c2ccc(F)cc2F)C(C)C)c1=O [Compound 116]
Plant response rating, Blk nightshade ([1]; Rate 62 g/ha, 0 to 100 scale): 10
Plant response rating, Blk nightshade ([1]; Rate 125 g/ha, 0 to 100 scale): 50
Plant response rating, Blk nightshade [1, 17]: 50
Plant response rating, Blk nightshade [1, 20]: 60
Plant response rating Common ragweed ([2]; Rate 140 g/ha): 0
Plant response rating Common ragweed ([2]; Rate 280 g/ha): 0
Plant response rating Common ragweed ([2]; Rate 560 g/ha): 0
Plant response rating Common ragweed ([2]; Rate 1120 g/ha): 0
Plant response rating, Field violet ([3]; Rate 62 g/ha, 0 to 100 scale): 60
Plant response rating, Field violet ([3]; Rate 125 g/ha, 0 to 100 scale): 0
Plant response rating, Field violet [3, 17]: 0
Plant response rating, Field violet [3, 20]: 0
Plant response rating, Field violet [4, 19]: 50
Plant response rating, Field violet ([4]; Rate 250 g/ha, 0 to 100 scale): 40
Plant response rating, Field violet [4, 21]: 90
Plant response rating, Galium [5, 19]: 100
Plant response rating, Galium ([5]; Rate 250 g/ha, 0 to 100 scale): 100
Plant response rating, Galium [5, 21]: 100
Plant response rating, Cocklebur ([6]; Rate 140 g/ha): 0
Plant response rating, Cocklebur ([6]; Rate 560 g/ha): 0
Plant response rating, Cocklebur ([6]; Rate 1120 g/ha): 50
Plant response rating, Common poppy ([7]; Rate 62 g/ha, 0 to 100 scale): 30
Plant response rating, Comnion poppy ([7]; 0 to 100 scale): 0
Plant response rating, Common poppy [7, 17]: 0
Plant response rating, Common poppy [7, 20]: 10
Plant response rating, Sunflower [8, 19]: 15
Plant response rating, Sunflower ([8]; Rate 250 g/ha, 0 to 100 scale): 40
Plant response rating, Sunflower [8, 21]: 70
Plant response rating, Blk nightshade [9, 19]: 80
Plant response rating, Blk nightshade ([9]; Rate 250 g/ha, 0 to 100 scale): 90
Plant response rating, Blk nightshade [9, 21]: 100
Plant response rating Wild poinsettia ([10]; Rate 140 g/ha): 0
Plant response rating Wild poinsettia ([10]; Rate 280 g/ha): 0
Plant response rating Wild poinsettia ([10]; Rate 560 g/ha): 0
Plant response rating, Scentless chamo ([11]; Rate 62 g/ha, 0 to 100 scale): 50
Plant response rating, Scentless chamo ([11]; Rate 125 g/ha, 0 to 100 scale): 0
Plant response rating, Scentless chamo [11, 17]: 0
Plant response rating, Scentless chamo [11, 20]: 40
Plant response rating, Green foxtail ([12]; Rate 62 g/ha, 0 to 100 scale): 20
Plant response rating, Green foxtail ([12]; Rate 125 g/ha, 0 to 100 scale): 70
Plant response rating, Green foxtail [12, 17]: 75
Plant response rating, Green foxtail [12, 20]: 75
Plant response rating, Wild mustard [13, 19]: 75
Plant response rating, Wild mustard ([13]; Rate 250 g/ha, 0 to 100 scale): 85
Plant response rating, Wild mustard [13, 21]: 65
Plant response rating, Sugar beet ([14]; Rate 62 g/ha, 0 to 100 scale): 0
Plant response rating, Sugar beet ([14]; Rate 125 g/ha, 0 to 100 scale): 0
Plant response rating, Sugar beet [14, 17]: 0
Plant response rating, Sugar beet [14, 20]: 0
Plant response rating Field bindweed ([15]; Rate 140 g/ha): 0
Plant response rating Field bindweed ([15]; Rate 280 g/ha): 0
Plant response rating Field bindweed ([15]; Rate 560 g/ha): 50
Plant response rating Field bindweed ([15]; Rate 1120 g/ha): 50

CCOC(=O)Cn1c(=O)on(C(=O)N(c2ccc(F)cc2)C(C)C)c1=O [Compound 128]
Plant response rating, Crabgrass ([16]; Postemergence, Rate 1000 g/ha): 0
Plant response rating, Crabgrass ([16]; Pre-emergence, Rate 2000 g/ha): 0

Cc1ccccc1Cn1c(=O)on(C(=O)N(c2ccc(Cl)cc2)C(C)C)c1=O [Compound 136]
Plant response rating, Crabgrass ([16]; Postemergence, Rate 1000 g/ha): 6
Plant response rating, Crabgrass ([16]; Pre-emergence, Rate 2000 g/ha): 10
